Test results reported in ChEMBL document CHEMBL1135323, “Dihydroquinolines as novel n-NOS inhibitors” (Bioorg Med Chem Lett, 2002).

Legend:
Nitric oxide synthase 3 = target: T1, Nitric oxide synthase 3 (Homo sapiens, UniProt P29474); assay: In vitro inhibition of endothelial nitric oxide synthase.
T1 sequence (P29474 whole entry): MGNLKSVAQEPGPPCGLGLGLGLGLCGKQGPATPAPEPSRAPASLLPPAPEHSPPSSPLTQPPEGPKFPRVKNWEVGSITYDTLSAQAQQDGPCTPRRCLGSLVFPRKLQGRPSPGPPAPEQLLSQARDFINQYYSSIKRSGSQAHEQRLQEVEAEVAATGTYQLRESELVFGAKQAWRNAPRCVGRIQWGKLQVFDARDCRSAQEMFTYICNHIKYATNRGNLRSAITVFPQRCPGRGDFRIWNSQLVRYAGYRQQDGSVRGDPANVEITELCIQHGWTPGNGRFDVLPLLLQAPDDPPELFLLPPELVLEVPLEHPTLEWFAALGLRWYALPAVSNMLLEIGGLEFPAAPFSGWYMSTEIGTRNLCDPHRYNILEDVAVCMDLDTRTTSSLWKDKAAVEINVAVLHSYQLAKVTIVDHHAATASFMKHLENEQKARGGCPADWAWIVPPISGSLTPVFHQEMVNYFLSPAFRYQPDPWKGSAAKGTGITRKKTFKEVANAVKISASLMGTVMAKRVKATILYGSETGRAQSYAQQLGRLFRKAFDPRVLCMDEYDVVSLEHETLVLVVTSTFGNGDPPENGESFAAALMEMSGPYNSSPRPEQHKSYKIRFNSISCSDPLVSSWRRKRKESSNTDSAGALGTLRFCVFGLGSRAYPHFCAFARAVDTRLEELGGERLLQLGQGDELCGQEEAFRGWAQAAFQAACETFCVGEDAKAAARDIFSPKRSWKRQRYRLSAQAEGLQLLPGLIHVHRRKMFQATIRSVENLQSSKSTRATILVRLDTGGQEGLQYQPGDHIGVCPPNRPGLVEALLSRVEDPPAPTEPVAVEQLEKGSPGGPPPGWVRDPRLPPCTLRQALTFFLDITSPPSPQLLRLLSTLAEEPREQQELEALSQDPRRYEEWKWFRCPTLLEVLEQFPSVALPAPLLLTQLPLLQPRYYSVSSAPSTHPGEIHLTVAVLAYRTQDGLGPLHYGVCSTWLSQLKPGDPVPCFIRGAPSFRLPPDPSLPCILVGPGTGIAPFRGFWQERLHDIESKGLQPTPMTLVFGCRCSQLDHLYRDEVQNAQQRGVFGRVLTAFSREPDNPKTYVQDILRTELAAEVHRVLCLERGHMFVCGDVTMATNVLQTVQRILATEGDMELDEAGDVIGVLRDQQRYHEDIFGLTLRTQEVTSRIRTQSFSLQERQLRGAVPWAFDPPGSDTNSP

[1] = target: Nitric oxide synthase, inducible (Homo sapiens, UniProt P35228); assay: In vitro inhibition of inducible nitric oxide synthase.
Nitric oxide synthase 1 = Nitric oxide synthase 1 (Homo sapiens, UniProt P29475); assay: Concentration required to inhibit neuronal nitric oxide synthase
Chain of Nitric oxide synthase 1 (P29475 whole entry): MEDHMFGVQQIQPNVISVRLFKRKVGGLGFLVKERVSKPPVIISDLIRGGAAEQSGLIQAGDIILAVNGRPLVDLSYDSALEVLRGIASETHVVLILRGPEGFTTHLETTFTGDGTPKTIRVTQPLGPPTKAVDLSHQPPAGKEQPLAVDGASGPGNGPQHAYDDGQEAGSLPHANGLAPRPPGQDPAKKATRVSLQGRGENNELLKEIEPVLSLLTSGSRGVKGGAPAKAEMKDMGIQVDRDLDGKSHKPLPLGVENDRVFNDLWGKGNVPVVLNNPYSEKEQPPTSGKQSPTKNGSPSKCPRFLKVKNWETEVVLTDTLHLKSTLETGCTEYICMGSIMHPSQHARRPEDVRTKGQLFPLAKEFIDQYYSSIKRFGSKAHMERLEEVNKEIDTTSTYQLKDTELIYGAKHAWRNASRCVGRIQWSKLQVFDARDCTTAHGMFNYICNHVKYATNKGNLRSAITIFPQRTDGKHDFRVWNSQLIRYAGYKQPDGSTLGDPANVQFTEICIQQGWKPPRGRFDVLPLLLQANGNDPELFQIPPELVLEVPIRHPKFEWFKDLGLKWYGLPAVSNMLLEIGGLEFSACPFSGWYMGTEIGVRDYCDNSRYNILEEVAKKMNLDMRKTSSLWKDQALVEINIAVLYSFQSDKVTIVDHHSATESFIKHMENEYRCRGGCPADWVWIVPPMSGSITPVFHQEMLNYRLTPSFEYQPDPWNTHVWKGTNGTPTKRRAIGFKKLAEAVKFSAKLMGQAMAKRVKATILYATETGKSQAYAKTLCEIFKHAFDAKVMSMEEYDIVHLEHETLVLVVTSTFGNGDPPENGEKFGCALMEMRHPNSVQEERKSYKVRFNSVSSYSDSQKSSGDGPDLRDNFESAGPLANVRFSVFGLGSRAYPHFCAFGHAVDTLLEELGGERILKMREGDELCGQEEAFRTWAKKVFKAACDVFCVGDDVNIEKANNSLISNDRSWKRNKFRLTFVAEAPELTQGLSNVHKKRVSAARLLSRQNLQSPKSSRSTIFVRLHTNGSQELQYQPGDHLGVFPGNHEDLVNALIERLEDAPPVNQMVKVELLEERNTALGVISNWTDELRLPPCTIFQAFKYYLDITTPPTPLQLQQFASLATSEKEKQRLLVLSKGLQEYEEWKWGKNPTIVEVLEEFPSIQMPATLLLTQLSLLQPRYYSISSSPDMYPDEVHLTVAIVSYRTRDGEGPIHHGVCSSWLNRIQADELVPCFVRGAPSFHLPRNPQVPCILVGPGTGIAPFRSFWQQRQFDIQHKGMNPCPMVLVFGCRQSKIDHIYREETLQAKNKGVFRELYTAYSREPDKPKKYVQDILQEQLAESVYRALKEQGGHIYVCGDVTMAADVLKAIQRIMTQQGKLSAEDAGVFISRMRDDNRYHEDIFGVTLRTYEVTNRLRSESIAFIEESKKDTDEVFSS

Chain of Nitric oxide synthase, inducible (P35228 whole entry): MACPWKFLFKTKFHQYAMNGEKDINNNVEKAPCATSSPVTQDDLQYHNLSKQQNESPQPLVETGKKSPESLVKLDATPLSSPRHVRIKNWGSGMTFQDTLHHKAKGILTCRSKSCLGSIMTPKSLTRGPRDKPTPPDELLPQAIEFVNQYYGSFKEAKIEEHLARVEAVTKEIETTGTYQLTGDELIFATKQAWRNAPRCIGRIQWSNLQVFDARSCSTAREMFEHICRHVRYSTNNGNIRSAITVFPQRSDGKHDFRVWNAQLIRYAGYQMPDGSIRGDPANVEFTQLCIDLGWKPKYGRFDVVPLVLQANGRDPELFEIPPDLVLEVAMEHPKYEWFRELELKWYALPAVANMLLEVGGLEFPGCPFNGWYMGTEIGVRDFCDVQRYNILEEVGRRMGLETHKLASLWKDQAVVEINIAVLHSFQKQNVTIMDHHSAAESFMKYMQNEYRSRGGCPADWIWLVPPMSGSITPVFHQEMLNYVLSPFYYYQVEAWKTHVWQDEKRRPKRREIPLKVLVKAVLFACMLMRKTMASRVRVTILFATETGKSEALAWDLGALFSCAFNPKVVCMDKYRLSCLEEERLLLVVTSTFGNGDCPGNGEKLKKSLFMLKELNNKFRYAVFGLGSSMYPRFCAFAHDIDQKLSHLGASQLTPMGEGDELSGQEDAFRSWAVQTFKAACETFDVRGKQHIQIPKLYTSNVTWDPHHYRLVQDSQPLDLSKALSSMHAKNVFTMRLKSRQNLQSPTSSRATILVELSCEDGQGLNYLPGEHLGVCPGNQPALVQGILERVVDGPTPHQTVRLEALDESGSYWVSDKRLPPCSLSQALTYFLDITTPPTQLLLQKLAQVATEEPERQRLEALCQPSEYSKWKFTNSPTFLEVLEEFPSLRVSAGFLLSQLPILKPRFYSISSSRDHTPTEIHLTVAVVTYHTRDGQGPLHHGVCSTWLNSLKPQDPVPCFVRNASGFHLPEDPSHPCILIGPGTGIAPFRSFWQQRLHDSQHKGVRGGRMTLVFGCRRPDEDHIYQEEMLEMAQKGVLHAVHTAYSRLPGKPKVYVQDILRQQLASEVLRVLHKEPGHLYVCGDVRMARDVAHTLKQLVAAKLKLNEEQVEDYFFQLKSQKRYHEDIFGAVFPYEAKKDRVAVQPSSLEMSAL

SMILES: NC1=Nc2ccc(Cl)cc2[C@H]2CCC[C@@H]12
- IC50 (Nitric oxide synthase 3): 6.2 µM
- IC50 [1]: 5.7 µM
- IC50 (Nitric oxide synthase 1): 0.14 µM

SMILES: NC1=Nc2ccc(C(F)(F)F)cc2[C@H]2CCC[C@@H]12
- IC50 (Nitric oxide synthase 3): 57 µM
- IC50 [1]: 89 µM
- IC50 (Nitric oxide synthase 1): 1.6 µM

SMILES: NC1=Nc2c(F)cc(Cl)cc2[C@H]2CCC[C@@H]12
- IC50 (Nitric oxide synthase 3): 72 µM
- IC50 [1]: 35 µM
- IC50 (Nitric oxide synthase 1): 0.73 µM

SMILES: CNC1=Nc2ccccc2[C@H]2CCC[C@@H]12
- IC50 (Nitric oxide synthase 1): > 100 µM

SMILES: NC1=Nc2c(F)cccc2[C@H]2CCC[C@@H]12
- IC50 (Nitric oxide synthase 3): 5.8 µM
- IC50 [1]: 2.3 µM
- IC50 (Nitric oxide synthase 1): 0.17 µM

SMILES: c1ccc2c(c1)NC[C@@H]1CCC[C@H]21
- IC50 (Nitric oxide synthase 1): > 200 µM

SMILES: NC1=Nc2cc(F)ccc2[C@H]2CCC[C@@H]12
- IC50 (Nitric oxide synthase 3): 2.3 µM
- IC50 [1]: 1.1 µM
- IC50 (Nitric oxide synthase 1): 0.13 µM

SMILES: NC1=Nc2ccccc2[C@H]2CCCC[C@@H]12
- IC50 (Nitric oxide synthase 1): 6.8 µM

SMILES: NC1=Nc2ccccc2[C@H]2COC[C@@H]12
- IC50 (Nitric oxide synthase 3): 0.96 µM
- IC50 [1]: 4.1 µM
- IC50 (Nitric oxide synthase 1): 0.13 µM

SMILES: Cc1ccc2c(c1)N=C(N)[C@@H]1CCC[C@H]21
- IC50 (Nitric oxide synthase 3): 6.2 µM
- IC50 [1]: 1.1 µM
- IC50 (Nitric oxide synthase 1): 0.19 µM

SMILES: NC1=Nc2ccccc2[C@H]2CCC[C@@H]12
- IC50 (Nitric oxide synthase 3): 3.3 µM
- IC50 [1]: 2.7 µM
- IC50 (Nitric oxide synthase 1): 0.16 µM

SMILES: NC1=Nc2cc([N+](=O)[O-])ccc2[C@H]2CCC[C@@H]12
- IC50 (Nitric oxide synthase 3): 12 µM
- IC50 [1]: 2.6 µM
- IC50 (Nitric oxide synthase 1): 0.31 µM

SMILES: N#Cc1ccc2c(c1)[C@H]1CCC[C@H]1C(N)=N2
- IC50 (Nitric oxide synthase 3): 54 µM
- IC50 [1]: 32 µM
- IC50 (Nitric oxide synthase 1): 0.64 µM

SMILES: Cc1ccc2c(c1)[C@H]1CCC[C@H]1C(N)=N2
- IC50 (Nitric oxide synthase 3): 21 µM
- IC50 [1]: 12 µM
- IC50 (Nitric oxide synthase 1): 0.5 µM

SMILES: NC1=Nc2ccc(Br)cc2[C@H]2CCC[C@@H]12
- IC50 (Nitric oxide synthase 3): 17 µM
- IC50 [1]: 14 µM
- IC50 (Nitric oxide synthase 1): 0.31 µM

SMILES: ONC1=Nc2ccccc2[C@H]2CCC[C@@H]12
- IC50 (Nitric oxide synthase 1): > 100 µM

SMILES: COc1ccc2c(c1)[C@H]1CCC[C@H]1C(N)=N2
- IC50 (Nitric oxide synthase 3): 24 µM
- IC50 [1]: 13 µM
- IC50 (Nitric oxide synthase 1): 0.64 µM

SMILES: COc1ccc2c(c1)N=C(N)[C@@H]1CCC[C@H]21
- IC50 (Nitric oxide synthase 3): 4.1 µM
- IC50 [1]: 1.4 µM
- IC50 (Nitric oxide synthase 1): 0.24 µM

SMILES: NC1=Nc2ccc(F)cc2[C@H]2CCC[C@@H]12
- IC50 (Nitric oxide synthase 3): 2.3 µM
- IC50 [1]: 1.7 µM
- IC50 (Nitric oxide synthase 1): 0.11 µM

SMILES: NC1=Nc2c(ccc(F)c2F)[C@H]2CCC[C@@H]12
- IC50 (Nitric oxide synthase 3): 20 µM
- IC50 [1]: 5.1 µM
- IC50 (Nitric oxide synthase 1): 0.68 µM

SMILES: NC1=Nc2c(cc(Cl)c(F)c2F)[C@H]2CCC[C@@H]12
- IC50 (Nitric oxide synthase 3): > 200 µM
- IC50 [1]: 78 µM
- IC50 (Nitric oxide synthase 1): 2.1 µM

SMILES: NC1=Nc2ccccc2N2CCCC12 (stereo unspecified)
- IC50 (Nitric oxide synthase 1): 3.3 µM

SMILES: NC1=Nc2ccccc2[C@H]2CCCCC[C@@H]12
- IC50 (Nitric oxide synthase 1): 100 µM

SMILES: NC1=Nc2c(Cl)cc(Cl)cc2[C@H]2CCC[C@@H]12
- IC50 (Nitric oxide synthase 3): > 200 µM
- IC50 [1]: 30 µM
- IC50 (Nitric oxide synthase 1): 4.1 µM

SMILES: NC1=Nc2ccc([N+](=O)[O-])cc2[C@H]2CCC[C@@H]12
- IC50 (Nitric oxide synthase 3): 34 µM
- IC50 [1]: 15 µM
- IC50 (Nitric oxide synthase 1): 0.25 µM

SMILES: COC(=O)[C@@H](N)CCCNC(=N)N[N+](=O)[O-] [L-NAME]
- IC50 (Nitric oxide synthase 3): 1.5 µM
- IC50 [1]: 8 µM
- IC50 (Nitric oxide synthase 1): 1.6 µM
